Reference: publication PMC6976587, “Conversion of Broad-Spectrum Antimicrobial Peptides into Species-Specific Antimicrobials Capable of Precisely Targeting Pathogenic Bacteria” (Scientific Reports, 2020)
Converted amounts (≈) assume the structure as drawn. Residues, ends and D or L forms follow the SMILES beside them.

Key:
S. typhimurium C7731 = assay type: cell-based, Salmonella typhimurium; conditions: C7731, 16 h
Protocol: (§1) The antimicrobial activities of the peptides were investigated against the following bacteria: E. faecalis ATCC 29212, S. epidermidis ATCC 12228, S. aureus ATCC 29213, E. coli ATCC 25922, S. typhimurium […] and S. Pullorum […]. The MICs of the peptides were determined using a modified standard microtiter dilution method as described previously[29],[38]. Briefly, the microbial strains were cultured in MHB at 37 °C to reach mid-log phase and then diluted to 0.5-1×10^6 CFU/ml. 50 μL volumes of bacteria suspension were incubated in sterile 96-well plates with 50 μl of 2-fold serially diluted peptides at different concentrations (0.25-128 μM). Cultures with or without bacterial cells was employed as positive and negative controls, respectively. […] Each measurement was reproduced at least four times using three replicates.

S. aureus ATCC 29213 = assay type: cell-based, Staphylococcus aureus; conditions: ATCC 29213, 16 h
Protocol: as §1

S. Pullorum C7913 = assay type: cell-based, Salmonella Pullorum; conditions: C7913, 16 h
Protocol: as §1

E. faecalis ATCC 29212 = assay type: cell-based, Enterococcus faecalis; conditions: ATCC 29212, 16 h
Protocol: as §1

E. coli ATCC 25922 = assay type: cell-based, Escherichia coli; conditions: ATCC 25922, 16 h
Protocol: as §1

[1] = system: S. epidermidis ATCC 12228; assay type: cell-based, Staphylococcus epidermidis; conditions: ATCC 12228, 16 h
Protocol: as §1

| SMILES | MIC (μM) Gram-negative S. typhimurium 29213 (S. typhimurium C7731) [µM] | MIC (μM) Gram-positive S. aureus 1005 (S. aureus ATCC 29213) [µM] | MIC (μM) Gram-negative S. Pullorum 43300 (S. Pullorum C7913) [µM] | MIC (μM) Gram-positive E. faecalis 25922 (E. faecalis ATCC 29212) [µM] | MIC (μM) Gram-negative E. coli 12228 (E. coli ATCC 25922) [µM] | MIC (μM) Gram-positive S. epidermidis 7913 [1] [µM] |
| --- | --- | --- | --- | --- | --- | --- |
| CC(C)C[C@H](NC(=O)[C@@H](NC(=O)[C@@H](NC(=O)[C@@H](N)CC(C)C)C(C)C)[C@@H](C)O)C(=O)N[C@H](C(=O)N[C@@H](Cc1ccccc1)C(=O)N[C@H](C(=O)O)C(C)C)C(C)C [cCF10, reference compound] (H-LVTLVFV-OH) | >128 | >128 | >128 | >128 | >128 | >128 |
| CC(C)C[C@H](NC(=O)[C@@H](NC(=O)[C@@H](NC(=O)[C@@H](N)CC(C)C)C(C)C)[C@@H](C)O)C(=O)N[C@H](C(=O)N[C@@H](Cc1ccccc1)C(=O)N[C@H](C(=O)NCC(=O)NCC(=O)NCC(=O)N[C@@H](Cc1c[nH]c2ccccc12)C(=O)N[C@@H](CCCCN)C(=O)N[C@@H](Cc1c[nH]c2ccccc12)C(=O)N[C@@H](CCCCN)C(=O)N[C@@H](Cc1c[nH]c2ccccc12)C(=O)N[C@@H](CCC(=O)O)C(=O)N[C@@H](CC(N)=O)C(=O)NCC(=O)N[C@@H](CCCCN)C(=O)N[C@@H](Cc1c[nH]c2ccccc12)C(=O)N[C@@H](CCCCN)C(=O)N[C@@H](Cc1c[nH]c2ccccc12)C(=O)N[C@@H](CCC(N)=O)C(=O)N[C@@H](Cc1c[nH]c2ccccc12)C(=O)O)C(C)C)C(C)C [cCF10-C3] (H-LVTLVFVGGGWKWKWENGKWKWQW-OH) | >128 | >128 | >128 | >128 | >128 | >128 |
| CC(C)C[C@H](NC(=O)[C@@H](NC(=O)[C@@H](NC(=O)[C@@H](N)CC(C)C)C(C)C)[C@@H](C)O)C(=O)N[C@H](C(=O)N[C@@H](Cc1ccccc1)C(=O)N[C@H](C(=O)NCC(=O)NCC(=O)NCC(=O)N[C@@H](Cc1c[nH]c2ccccc12)C(=O)N[C@@H](CCCCN)C(=O)N[C@@H](Cc1c[nH]c2ccccc12)C(=O)N[C@@H](CCCCN)C(=O)N[C@@H](Cc1c[nH]c2ccccc12)C(=O)N[C@@H](CCCCN)C(=O)N[C@@H](CC(N)=O)C(=O)NCC(=O)N[C@@H](CCCCN)C(=O)N[C@@H](Cc1c[nH]c2ccccc12)C(=O)N[C@@H](CCCCN)C(=O)N[C@@H](Cc1c[nH]c2ccccc12)C(=O)N[C@@H](CCCCN)C(=O)N[C@@H](Cc1c[nH]c2ccccc12)C(=O)O)C(C)C)C(C)C [cCF10-C6] (H-LVTLVFVGGGWKWKWKNGKWKWKW-OH) | >128 | 32 (≈ 96.6 µg/mL) | 16 (≈ 48.3 µg/mL) | 4 (≈ 12.1 µg/mL) | 4 (≈ 12.1 µg/mL) | 32 (≈ 96.6 µg/mL) |
| CC[C@H](C)[C@H](NC(=O)[C@H](Cc1ccccc1)NC(=O)[C@H](CS)NC(=O)[C@@H](NC(=O)[C@H](CO)NC(=O)[C@@H](N)Cc1ccc(O)cc1)[C@@H](C)O)C(=O)N[C@@H](CCSC)C(=O)NCC(=O)NCC(=O)NCC(=O)N[C@@H](Cc1c[nH]c2ccccc12)C(=O)N[C@@H](CCCCN)C(=O)N[C@@H](Cc1c[nH]c2ccccc12)C(=O)N[C@@H](CCCCN)C(=O)N[C@@H](Cc1c[nH]c2ccccc12)C(=O)N[C@@H](CCC(=O)O)C(=O)N[C@@H](CC(N)=O)C(=O)NCC(=O)N[C@@H](CCCCN)C(=O)N[C@@H](Cc1c[nH]c2ccccc12)C(=O)N[C@@H](CCCCN)C(=O)N[C@@H](Cc1c[nH]c2ccccc12)C(=O)N[C@@H](CCCCN)C(=O)N[C@@H](Cc1c[nH]c2ccccc12)C(=O)O [random-C4] (H-YSTCFIMGGGWKWKWENGKWKWKW-OH) | >128 | >128 | >128 | >128 | 32 (≈ 99 µg/mL) | >128 |

Results, then the compound that gave them:

| MIC (μM) Gram-negative S. typhimurium 29213 (S. typhimurium C7731) [µM] | MIC (μM) Gram-positive S. aureus 1005 (S. aureus ATCC 29213) [µM] | MIC (μM) Gram-negative S. Pullorum 43300 (S. Pullorum C7913) [µM] | MIC (μM) Gram-positive E. faecalis 25922 (E. faecalis ATCC 29212) [µM] | MIC (μM) Gram-negative E. coli 12228 (E. coli ATCC 25922) [µM] | MIC (μM) Gram-positive S. epidermidis 7913 [1] [µM] | SMILES |
| --- | --- | --- | --- | --- | --- | --- |
| 64 (≈ 133 µg/mL) | >128 | 16 (≈ 33.2 µg/mL) | >128 | 32 (≈ 66.4 µg/mL) | >128 | NCCCC[C@H](NC(=O)CNC(=O)[C@H](CC(N)=O)NC(=O)[C@H](CCC(=O)O)NC(=O)[C@H](Cc1c[nH]c2ccccc12)NC(=O)[C@H](CCCCN)NC(=O)[C@H](Cc1c[nH]c2ccccc12)NC(=O)[C@H](CCCCN)NC(=O)[C@@H](N)Cc1c[nH]c2ccccc12)C(=O)N[C@@H](Cc1c[nH]c2ccccc12)C(=O)N[C@@H](CCCCN)C(=O)N[C@@H](Cc1c[nH]c2ccccc12)C(=O)N[C@@H](CCC(N)=O)C(=O)N[C@@H](Cc1c[nH]c2ccccc12)C(=O)O [C3] (H-WKWKWENGKWKWQW-OH) |
| 32 (≈ 66.4 µg/mL) | 32 (≈ 66.4 µg/mL) | 8 (≈ 16.6 µg/mL) | 64 (≈ 133 µg/mL) | 2 (≈ 4.15 µg/mL) | 32 (≈ 66.4 µg/mL) | NCCCC[C@H](NC(=O)CNC(=O)[C@H](CC(N)=O)NC(=O)[C@H](CCC(=O)O)NC(=O)[C@H](Cc1c[nH]c2ccccc12)NC(=O)[C@H](CCCCN)NC(=O)[C@H](Cc1c[nH]c2ccccc12)NC(=O)[C@H](CCCCN)NC(=O)[C@@H](N)Cc1c[nH]c2ccccc12)C(=O)N[C@@H](Cc1c[nH]c2ccccc12)C(=O)N[C@@H](CCCCN)C(=O)N[C@@H](Cc1c[nH]c2ccccc12)C(=O)N[C@@H](CCCCN)C(=O)N[C@@H](Cc1c[nH]c2ccccc12)C(=O)O [C4] (H-WKWKWENGKWKWKW-OH) |
| >128 | 8 (≈ 24.1 µg/mL) | 8 (≈ 24.1 µg/mL) | 16 (≈ 48.3 µg/mL) | 2 (≈ 6.04 µg/mL) | 32 (≈ 96.6 µg/mL) | CC(C)C[C@H](NC(=O)CNC(=O)CNC(=O)CNC(=O)[C@H](Cc1c[nH]c2ccccc12)NC(=O)[C@H](CCCCN)NC(=O)[C@H](Cc1c[nH]c2ccccc12)NC(=O)[C@H](CCCCN)NC(=O)[C@H](Cc1c[nH]c2ccccc12)NC(=O)[C@H](CCCCN)NC(=O)CNC(=O)[C@H](CC(N)=O)NC(=O)[C@H](CCCCN)NC(=O)[C@H](Cc1c[nH]c2ccccc12)NC(=O)[C@H](CCCCN)NC(=O)[C@H](Cc1c[nH]c2ccccc12)NC(=O)[C@H](CCCCN)NC(=O)[C@@H](N)Cc1c[nH]c2ccccc12)C(=O)N[C@H](C(=O)N[C@H](C(=O)N[C@@H](CC(C)C)C(=O)N[C@H](C(=O)N[C@@H](Cc1ccccc1)C(=O)N[C@H](C(=O)O)C(C)C)C(C)C)[C@@H](C)O)C(C)C [C6-cCF10] (H-WKWKWKNGKWKWKWGGGLVTLVFV-OH) |
| 8 (≈ 17.2 µg/mL) | 8 (≈ 17.2 µg/mL) | 8 (≈ 17.2 µg/mL) | 4 (≈ 8.62 µg/mL) | 2 (≈ 4.31 µg/mL) | 16 (≈ 34.5 µg/mL) | CC(C)C[C@H](NC(=O)[C@H](CCCNC(=N)N)NC(=O)CNC(=O)CNC(=O)[C@@H](N)CCCNC(=N)N)C(=O)N[C@H]1CSSC[C@@H](C(=O)N[C@H](C(=O)NCC(=O)N[C@@H](CCCNC(=N)N)C(N)=O)C(C)C)NC(=O)[C@H](C(C)C)NC(=O)[C@@H]2CSSC[C@H](NC(=O)[C@H](Cc3ccc(O)cc3)NC1=O)C(=O)N[C@@H](CCCNC(=N)N)C(=O)N[C@@H](CCCNC(=N)N)C(=O)N[C@@H](CCCNC(=N)N)C(=O)N[C@@H](Cc1ccccc1)C(=O)N2 [PG-1, reference compound] |
| >128 | >128 | >128 | 8 (≈ 24.2 µg/mL) | 64 (≈ 193 µg/mL) | >128 | CC(C)C[C@H](NC(=O)[C@@H](NC(=O)[C@@H](NC(=O)[C@@H](N)CC(C)C)C(C)C)[C@@H](C)O)C(=O)N[C@H](C(=O)N[C@@H](Cc1ccccc1)C(=O)N[C@H](C(=O)NCC(=O)NCC(=O)NCC(=O)N[C@@H](Cc1c[nH]c2ccccc12)C(=O)N[C@@H](CCCCN)C(=O)N[C@@H](Cc1c[nH]c2ccccc12)C(=O)N[C@@H](CCCCN)C(=O)N[C@@H](Cc1c[nH]c2ccccc12)C(=O)N[C@@H](CCC(=O)O)C(=O)N[C@@H](CC(N)=O)C(=O)NCC(=O)N[C@@H](CCCCN)C(=O)N[C@@H](Cc1c[nH]c2ccccc12)C(=O)N[C@@H](CCCCN)C(=O)N[C@@H](Cc1c[nH]c2ccccc12)C(=O)N[C@@H](CCCCN)C(=O)N[C@@H](Cc1c[nH]c2ccccc12)C(=O)O)C(C)C)C(C)C [cCF10-C4] (H-LVTLVFVGGGWKWKWENGKWKWKW-OH) |
